Experimental findings from patent publication US12723063B2, “GIPR-agonist compounds” (Eli Lilly and Company, priority 2019, dated 2026) are described below.

Each structure is given as a SMILES string. *1 amine or outer side, *2 acyl side, *3 side chain or, on linkers, in order; H or OH if unused. Where a SMILES comes first, the peptide text is derived from it. Side-chain parts run from the residue outwards. [ ]: non-standard residue; d: D form. The star is where a group is joined. C20 diacid = O=C(O)CCCCCCCCCCCCCCCCCCC(=O)*; C18 diacid = O=C(O)CCCCCCCCCCCCCCCCC(=O)*; αMePhe(2-F) = C[C@](N)(Cc1ccccc1F)C(=O)O; γGlu = O=C(O)[C@H](CCC(=O)[*:2])N[*:1]; 4Pal = N[C@@H](Cc1ccncc1)C(=O)O; αMeL = CC(C)C[C@](C)(N)C(=O)O; Orn = NCCC[C@H](N)C(=O)O; AEEA = NCCOCCOCC(=O)O; Aib = CC(C)(N)C(=O)O

Holding throughout (assay): cAMP functional assay (HTRF) in HEK293 cells in presence of 0.1% casein
Common to all, as to format: cell-based

For test [1], the target named is T1, human GLP-1 receptor (GLP-1R) (Homo sapiens, UniProt P43220).
T1 construct: expressed in transfected cells; host or cells: HEK293
T1 sequence (P43220 24-463): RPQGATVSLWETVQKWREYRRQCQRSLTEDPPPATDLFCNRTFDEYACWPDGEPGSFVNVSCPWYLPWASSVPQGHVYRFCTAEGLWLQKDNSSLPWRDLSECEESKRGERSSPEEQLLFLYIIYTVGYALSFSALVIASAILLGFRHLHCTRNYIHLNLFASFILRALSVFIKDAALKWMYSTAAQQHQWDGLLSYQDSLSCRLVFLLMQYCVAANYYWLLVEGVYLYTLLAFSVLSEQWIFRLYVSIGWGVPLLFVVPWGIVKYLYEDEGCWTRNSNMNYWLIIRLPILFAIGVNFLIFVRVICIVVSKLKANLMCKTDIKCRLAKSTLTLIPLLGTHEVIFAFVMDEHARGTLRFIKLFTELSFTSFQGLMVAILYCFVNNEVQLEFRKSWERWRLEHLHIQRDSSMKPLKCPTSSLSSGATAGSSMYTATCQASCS
To be noted: HEK293 cells expressing human GLP-1R, geometric mean, read-out: hGLP1R cAMP Rel EC50 nM (SEM, n).

For test [2], the target named is T2, human glucagon receptor (GcgR) (Homo sapiens, UniProt P47871).
T2 construct: expressed in transfected cells; host or cells: HEK293
T2 sequence (P47871 26-477): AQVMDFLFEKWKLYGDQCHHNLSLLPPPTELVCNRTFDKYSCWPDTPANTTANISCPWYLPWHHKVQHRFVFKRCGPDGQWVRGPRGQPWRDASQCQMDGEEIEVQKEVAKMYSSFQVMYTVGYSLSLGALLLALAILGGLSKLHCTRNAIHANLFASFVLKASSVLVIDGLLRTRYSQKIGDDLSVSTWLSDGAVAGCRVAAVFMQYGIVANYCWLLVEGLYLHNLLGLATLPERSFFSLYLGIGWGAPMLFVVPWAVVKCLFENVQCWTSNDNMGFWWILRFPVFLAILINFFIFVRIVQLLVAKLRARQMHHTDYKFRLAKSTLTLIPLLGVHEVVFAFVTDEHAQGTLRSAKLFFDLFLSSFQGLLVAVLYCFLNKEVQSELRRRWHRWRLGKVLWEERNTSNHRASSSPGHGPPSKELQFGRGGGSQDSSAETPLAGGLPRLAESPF
The settings on record: HEK293 cells expressing human GcgR, geometric mean, read-out: hGcgR cAMP Rel EC50 nM (SEM, n).

Test [3] concerns the target T3, human glucose-dependent insulinotropic peptide receptor (GIPR) (Homo sapiens, UniProt P48546).
T3 construct: expressed in transfected cells; host or cells: HEK293
T3 sequence (P48546 22-466): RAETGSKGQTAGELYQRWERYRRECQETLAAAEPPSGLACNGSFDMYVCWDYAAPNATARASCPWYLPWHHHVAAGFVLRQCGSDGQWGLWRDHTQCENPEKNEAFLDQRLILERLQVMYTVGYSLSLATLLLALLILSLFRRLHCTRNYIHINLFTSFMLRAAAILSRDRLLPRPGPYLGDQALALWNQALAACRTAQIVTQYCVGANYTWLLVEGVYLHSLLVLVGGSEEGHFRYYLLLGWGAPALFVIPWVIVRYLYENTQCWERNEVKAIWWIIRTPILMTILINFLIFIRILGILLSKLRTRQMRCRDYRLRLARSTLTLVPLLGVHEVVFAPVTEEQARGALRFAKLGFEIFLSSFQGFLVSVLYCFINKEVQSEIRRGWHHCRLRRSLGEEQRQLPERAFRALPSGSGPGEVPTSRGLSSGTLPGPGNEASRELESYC
To be noted: HEK293 cells expressing human GIPR, geometric mean, read-out: hGIPR cAMP Rel EC50 nM (SEM, n).

Regarding `CC[C@H](C)[C@H](NC(=O)[C@H](CCCN)NC(=O)[C@H](CC(=O)O)NC(=O)[C@H](CC(C)C)NC(=O)[C@](C)(CC(C)C)NC(=O)[C@@H](NC(=O)[C@H](CO)NC(=O)[C@H](Cc1ccc(O)cc1)NC(=O)[C@H](CC(=O)O)NC(=O)[C@H](CO)NC(=O)[C@@H](NC(=O)[C@H](Cc1ccccc1)NC(=O)[C@@H](NC(=O)CNC(=O)[C@H](CCC(=O)O)NC(=O)C(C)(C)NC(=O)[C@@H](N)Cc1ccc(O)cc1)[C@@H](C)O)[C@@H](C)CC)[C@@H](C)CC)C(=O)N[C@@H](Cc1c[nH]cn1)C(=O)N[C@@H](CCC(N)=O)C(=O)NC(C)(C)C(=O)N[C@@H](CCC(=O)O)C(=O)N[C@@H](Cc1ccccc1)C(=O)N[C@H](C(=O)N[C@@H](CCC(=O)O)C(=O)N[C@@H](Cc1ccc(O)cc1)C(=O)N[C@@H](CCCCNC(=O)COCCOCCNC(=O)COCCOCCNC(=O)CC[C@H](NC(=O)CCCCCCCCCCCCCCCCCCC(=O)O)C(=O)O)C(=O)N[C@@H](CC(C)C)C(=O)N[C@@H](CCC(=O)O)C(=O)NCC(=O)NCC(=O)N1CCC[C@H]1C(=O)N[C@@H](CO)C(=O)N[C@@H](CO)C(=O)NCC(=O)N[C@@H](C)C(=O)N1CCC[C@H]1C(=O)N1CCC[C@H]1C(=O)N1CCC[C@H]1C(=O)N[C@@H](CO)C(N)=O)C(C)C` [Example 107] (H-Y[Aib]EGTFISDYSI[αMeL]LD[Orn]IHQ[Aib]EFVEYK([AEEA-AEEA-γGlu-C20 diacid])LEGGPSSGAPPPS-NH2), the values for the half-maximal effective concentration (EC50) in test [1], in test [2] and in test [3] were over 5000 nM, over 5000 nM and 0.0199 nM, respectively.
With `CC[C@H](C)[C@H](NC(=O)[C@H](CCCN)NC(=O)[C@H](CC(=O)O)NC(=O)[C@H](CC(C)C)NC(=O)[C@](C)(CC(C)C)NC(=O)[C@@H](NC(=O)[C@H](CO)NC(=O)[C@H](Cc1ccc(O)cc1)NC(=O)[C@H](CC(=O)O)NC(=O)[C@H](CO)NC(=O)[C@@H](NC(=O)[C@H](Cc1ccccc1)NC(=O)[C@@H](NC(=O)CNC(=O)[C@H](CCC(=O)O)NC(=O)C(C)(C)NC(=O)[C@@H](N)Cc1ccc(O)cc1)[C@@H](C)O)[C@@H](C)CC)[C@@H](C)CC)C(=O)N[C@@H](Cc1c[nH]cn1)C(=O)N[C@@H](CCC(N)=O)C(=O)NC(C)(C)C(=O)N[C@@H](CC(=O)O)C(=O)N[C@@H](Cc1ccccc1)C(=O)N[C@H](C(=O)N[C@@H](CCC(=O)O)C(=O)N[C@@H](Cc1ccncc1)C(=O)N[C@@H](CCCCNC(=O)COCCOCCNC(=O)COCCOCCNC(=O)CC[C@H](NC(=O)CCCCCCCCCCCCCCCCCCC(=O)O)C(=O)O)C(=O)N[C@@H](CC(C)C)C(=O)N[C@@H](CCC(=O)O)C(=O)NCC(=O)NCC(=O)N1CCC[C@H]1C(=O)N[C@@H](CO)C(=O)N[C@@H](CO)C(=O)NCC(=O)N[C@@H](C)C(=O)N1CCC[C@H]1C(=O)N1CCC[C@H]1C(=O)N1CCC[C@H]1C(=O)N[C@@H](CO)C(N)=O)C(C)C` [Example 108] (H-Y[Aib]EGTFISDYSI[αMeL]LD[Orn]IHQ[Aib]DFVE[4Pal]K([AEEA-AEEA-γGlu-C20 diacid])LEGGPSSGAPPPS-NH2), the EC50 was over 5000 nM in test [1], over 5000 nM in test [2] and 0.0088 nM in test [3].
For the compound `CC[C@H](C)[C@H](NC(=O)[C@H](CCCCN)NC(=O)[C@H](CC(=O)O)NC(=O)[C@H](CC(C)C)NC(=O)[C@](C)(CC(C)C)NC(=O)[C@@H](NC(=O)[C@H](CO)NC(=O)[C@H](Cc1ccc(O)cc1)NC(=O)[C@H](CC(=O)O)NC(=O)[C@H](CO)NC(=O)[C@@H](NC(=O)[C@H](Cc1ccccc1)NC(=O)[C@@H](NC(=O)CNC(=O)[C@H](CCC(=O)O)NC(=O)C(C)(C)NC(=O)[C@@H](N)Cc1ccc(O)cc1)[C@@H](C)O)[C@@H](C)CC)[C@@H](C)CC)C(=O)N[C@@H](Cc1c[nH]cn1)C(=O)N[C@@H](CCC(N)=O)C(=O)NC(C)(C)C(=O)N[C@@H](CC(=O)O)C(=O)N[C@@H](Cc1ccccc1)C(=O)N[C@H](C(=O)N[C@@H](CCC(=O)O)C(=O)N[C@@H](Cc1ccncc1)C(=O)N[C@@H](CCCCNC(=O)COCCOCCNC(=O)COCCOCCNC(=O)CC[C@H](NC(=O)CCCCCCCCCCCCCCCCCCC(=O)O)C(=O)O)C(=O)N[C@@H](CC(C)C)C(=O)N[C@@H](CCC(=O)O)C(=O)NCC(=O)NCC(=O)N1CCC[C@H]1C(=O)N[C@@H](CO)C(=O)N[C@@H](CO)C(=O)NCC(=O)N[C@@H](C)C(=O)N1CCC[C@H]1C(=O)N1CCC[C@H]1C(=O)N1CCC[C@H]1C(=O)N[C@@H](CO)C(N)=O)C(C)C` [Example 109] (H-Y[Aib]EGTFISDYSI[αMeL]LDKIHQ[Aib]DFVE[4Pal]K([AEEA-AEEA-γGlu-C20 diacid])LEGGPSSGAPPPS-NH2), the EC50 in test [1] is over 5000 nM; in test [2], over 5000 nM; in test [3], 0.0113 nM.
For the compound `CC[C@H](C)[C@H](NC(=O)[C@H](CCCCN)NC(=O)[C@H](CC(=O)O)NC(=O)[C@H](CC(C)C)NC(=O)[C@](C)(CC(C)C)NC(=O)[C@@H](NC(=O)[C@H](CO)NC(=O)[C@H](Cc1ccc(O)cc1)NC(=O)[C@H](CC(=O)O)NC(=O)[C@H](CO)NC(=O)[C@@H](NC(=O)[C@H](Cc1ccccc1)NC(=O)[C@@H](NC(=O)CNC(=O)[C@H](CCC(=O)O)NC(=O)C(C)(C)NC(=O)[C@@H](N)Cc1ccc(O)cc1)[C@@H](C)O)[C@@H](C)CC)[C@@H](C)CC)C(=O)N[C@@H](Cc1c[nH]cn1)C(=O)N[C@@H](CCC(N)=O)C(=O)NC(C)(C)C(=O)N[C@@H](CC(=O)O)C(=O)N[C@@H](Cc1ccccc1)C(=O)N[C@H](C(=O)N[C@@H](CCC(=O)O)C(=O)N[C@@H](Cc1ccncc1)C(=O)N[C@@H](CCCCNC(=O)COCCOCCNC(=O)COCCOCCNC(=O)CC[C@H](NC(=O)CCCCCCCCCCCCCCCCC(=O)O)C(=O)O)C(=O)N[C@@H](CC(C)C)C(=O)N[C@@H](CCC(=O)O)C(=O)NCC(=O)NCC(=O)N1CCC[C@H]1C(=O)N[C@@H](CO)C(=O)N[C@@H](CO)C(=O)NCC(=O)N[C@@H](C)C(=O)N1CCC[C@H]1C(=O)N1CCC[C@H]1C(=O)N1CCC[C@H]1C(=O)N[C@@H](CO)C(N)=O)C(C)C` [Example 110] (H-Y[Aib]EGTFISDYSI[αMeL]LDKIHQ[Aib]DFVE[4Pal]K([AEEA-AEEA-γGlu-C18 diacid])LEGGPSSGAPPPS-NH2), the results for the concentration giving a half-maximal response (EC50) in test [1], in test [2] and in test [3] were over 5000 nM, over 5000 nM and 0.0071 nM, respectively.
Turning to `CC[C@H](C)[C@H](NC(=O)[C@H](CCCN)NC(=O)[C@H](CC(=O)O)NC(=O)[C@H](CC(C)C)NC(=O)[C@](C)(CC(C)C)NC(=O)[C@@H](NC(=O)[C@H](CO)NC(=O)[C@H](Cc1ccc(O)cc1)NC(=O)[C@H](CC(=O)O)NC(=O)[C@H](CO)NC(=O)[C@@H](NC(=O)[C@H](Cc1ccccc1)NC(=O)[C@@H](NC(=O)CNC(=O)[C@H](CCC(=O)O)NC(=O)C(C)(C)NC(=O)[C@@H](N)Cc1ccc(O)cc1)[C@@H](C)O)[C@@H](C)CC)[C@@H](C)CC)C(=O)N[C@@H](Cc1c[nH]cn1)C(=O)N[C@@H](CCC(N)=O)C(=O)NC(C)(C)C(=O)N[C@@H](CC(=O)O)C(=O)N[C@@H](Cc1ccccc1)C(=O)N[C@H](C(=O)N[C@@H](CCC(=O)O)C(=O)N[C@@H](Cc1ccncc1)C(=O)N[C@@H](CCCCNC(=O)COCCOCCNC(=O)COCCOCCNC(=O)CC[C@H](NC(=O)CCCCCCCCCCCCCCCCC(=O)O)C(=O)O)C(=O)N[C@@H](CC(C)C)C(=O)N[C@@H](CCC(=O)O)C(=O)NCC(=O)NCC(=O)N1CCC[C@H]1C(=O)N[C@@H](CO)C(=O)N[C@@H](CO)C(=O)NCC(=O)N[C@@H](C)C(=O)N1CCC[C@H]1C(=O)N1CCC[C@H]1C(=O)N1CCC[C@H]1C(=O)N[C@@H](CO)C(N)=O)C(C)C` [Example 111] (H-Y[Aib]EGTFISDYSI[αMeL]LD[Orn]IHQ[Aib]DFVE[4Pal]K([AEEA-AEEA-γGlu-C18 diacid])LEGGPSSGAPPPS-NH2), the EC50 in test [1] was over 5000 nM; in test [2], over 5000 nM; in test [3] it was 0.0065 nM.
As to `CC[C@H](C)[C@H](NC(=O)[C@H](CO)NC(=O)[C@H](Cc1ccc(O)cc1)NC(=O)[C@H](CC(=O)O)NC(=O)[C@H](CO)NC(=O)[C@@H](NC(=O)[C@](C)(Cc1ccccc1F)NC(=O)[C@@H](NC(=O)CNC(=O)[C@H](CCC(=O)O)NC(=O)C(C)(C)NC(=O)[C@@H](N)Cc1ccc(O)cc1)[C@@H](C)O)[C@@H](C)CC)C(=O)N[C@@H](C)C(=O)N[C@@H](CC(C)C)C(=O)N[C@@H](CC(=O)O)C(=O)N[C@@H](CCCCN)C(=O)N[C@H](C(=O)N[C@@H](Cc1c[nH]cn1)C(=O)N[C@@H](CCC(N)=O)C(=O)NC(C)(C)C(=O)N[C@@H](CC(=O)O)C(=O)N[C@@H](Cc1ccccc1)C(=O)N[C@H](C(=O)N[C@@H](CCC(=O)O)C(=O)N[C@@H](Cc1ccncc1)C(=O)N[C@@H](CCCCNC(=O)COCCOCCNC(=O)COCCOCCNC(=O)CC[C@H](NC(=O)CCCCCCCCCCCCCCCCCCC(=O)O)C(=O)O)C(=O)N[C@@H](CC(C)C)C(=O)N[C@@H](CCC(=O)O)C(=O)NCC(=O)NCC(=O)N1CCC[C@H]1C(=O)N[C@@H](CO)C(=O)N[C@@H](CO)C(=O)NCC(=O)N[C@@H](C)C(=O)N1CCC[C@H]1C(=O)N1CCC[C@H]1C(=O)N1CCC[C@H]1C(=O)N[C@@H](CO)C(N)=O)C(C)C)[C@@H](C)CC` [Example 112] (H-Y[Aib]EGT[αMePhe(2-F)]ISDYSIALDKIHQ[Aib]DFVE[4Pal]K([AEEA-AEEA-γGlu-C20 diacid])LEGGPSSGAPPPS-NH2), the EC50 in test [1] was over 5000 nM; in test [2], over 5000 nM; in test [3], 0.0041 nM.

For orientation: EC50 means the concentration that produces a half-maximal response.
